Tests used:
[1] = molecular target: T1, MLKL-RIPK3 PPI (Homo sapiens, UniProt Q8NB16+Q9Y572); test: MLKL-RIPK3 BiFC counter assay in transduced U2OS cells (VN-MLKL/VC-RIPK3); type: cell-based; conditions: counter screen, 16h treatment; CPDs even at high concentration
T1 construct: expressed in transfected cells; host or cells: U2OS cells transduced with MultiBacMam baculovirus
Protocol: (§1) Experiments were carried out in sterile, black clear-bottom 384 well plates (Cell carrier™ Perkin Elmer). U2OS cells were seed at density of cells 5 × 10^4 cells/well. After 3 hours, attached cells were transduced with 20 µl/well of viral stock dilution in PBS (Gibco) at multiplicity of infection (MOI) of 500 MOI. After were centrifuged during 30′ at 1500 rpm. Then plates were incubated at 37 °C during 5 hours. Thereafter the virus solution was replaced with 40 ul of complete growth medium containing 3 mM sodium butyrate (ABCR) with or without compound depending of the experiment. Cells were incubated for 16 hours at 37 °C with 5% of CO2. Finally plates were fixed with 4% paraformaldehyde (PFA) and stained with 5 µM Hoechst 33342 (Sigma-Aldrich). After 10 minutes of incubation at room temperature, plates were washed with PBS (GiBCO) and stored at 4 °C until imaging. […]
(§2) Cells were transduced or transfected and fixed as described above. Cells were stored in PBS until automated fluorescence microscopy analysis with Opera. Fluorescence images were acquired using the Opera QEHS reader (Perkin-Elmer) using a 20x objective. […]
(§3) Supplementary Figure S3. […] Then cells were treated with indicated amounts of compounds for 16h and percentage of BiFC positive cells was determined by High Content image analysis.

[2] = tested on: Tau dimerization; test: Tau BiFC counter assay in transduced U2OS cells (VN-TAU/VC-TAU); type: cell-based; conditions: counter screen, 16h treatment; CPDs even at high concentration
Protocol: as §1, §2, §3

[3] = molecular target: T2, CDK5-p25 PPI (Homo sapiens, UniProt Q00535+Q15078, D144N); test: MultiBacMam BiFC assay of CDK5-p25 PPI in transduced U2OS cells (VN-CDK5(D144N)/VC-p25); conditions: mammalian cell-based BiFC assay, versus published yeast-based data
T2 construct: The cleavage of p35 by the protease calpain generates p25; expressed in transfected cells; host or cells: U2OS cells transduced with MultiBacMam baculovirus
Protocol: as §1, with “imaging. For the immunostaining against p25 cells were permeabilized and stained with PBS, BSA 0.2% and Triton-X 100 0.5% and p35 (C-19) antibody from Santa Cruz Biotechnology (diluted 1:100 and incubated at 4 °C o/n).” for “imaging.”
as §2

[4] = tested on: U2OS cells; test: Total cell number / cytotoxicity in BiFC experiments; type: cell-based; conditions: prohibited increasing the compound concentration to above 13 µM
Protocol: Experiments were carried out in sterile, black clear-bottom 384 well plates (Cell carrier™ Perkin Elmer). U2OS cells were seed at density of cells 5 × 10^4 cells/well. After 3 hours, attached cells were transduced with 20 µl/well of viral stock dilution in PBS (Gibco) at multiplicity of infection (MOI) of 500 MOI. After were centrifuged during 30′ at 1500 rpm. Then plates were incubated at 37 °C during 5 hours. Thereafter the virus solution was replaced with 40 ul of complete growth medium containing 3 mM sodium butyrate (ABCR) with or without compound depending of the experiment. Cells were incubated for 16 hours at 37 °C with 5% of CO2. Finally plates were fixed with 4% paraformaldehyde (PFA) and stained with 5 µM Hoechst 33342 (Sigma-Aldrich). After 10 minutes of incubation at room temperature, plates were washed with PBS (GiBCO) and stored at 4 °C until imaging. For the immunostaining against p25 cells were permeabilized and stained with PBS, BSA 0.2% and Triton-X 100 0.5% and p35 (C-19) antibody from Santa Cruz Biotechnology (diluted 1:100 and incubated at 4 °C o/n). Then, the plates were incubated for 2 hrs at 37 °C with a donkey anti-rabbit conjugated with the alexa fluor 647 secondary antibody (Invitrogen). Finally plates were washed with PBS and stored at 4 °C until imaging.
Supplementary Figure S2. Total cell number in BiFC experiments. […]

T2 sequence (Q00535 whole entry D144N): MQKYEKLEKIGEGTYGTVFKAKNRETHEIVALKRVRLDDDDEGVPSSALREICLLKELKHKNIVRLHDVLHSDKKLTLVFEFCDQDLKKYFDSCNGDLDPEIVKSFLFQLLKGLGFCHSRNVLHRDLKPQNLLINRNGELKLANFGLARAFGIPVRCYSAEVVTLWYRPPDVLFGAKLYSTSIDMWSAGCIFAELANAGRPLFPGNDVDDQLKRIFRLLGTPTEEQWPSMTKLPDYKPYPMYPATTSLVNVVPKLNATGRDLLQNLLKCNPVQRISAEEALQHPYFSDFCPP
T2 sequence (Q15078 99-307 limits assumed): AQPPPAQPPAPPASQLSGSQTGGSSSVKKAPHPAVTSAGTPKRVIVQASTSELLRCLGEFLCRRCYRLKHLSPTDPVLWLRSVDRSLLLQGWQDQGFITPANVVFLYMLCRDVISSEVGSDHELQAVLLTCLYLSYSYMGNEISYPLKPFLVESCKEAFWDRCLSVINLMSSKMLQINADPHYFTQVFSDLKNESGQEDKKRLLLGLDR
T1 sequence (Q8NB16 whole entry): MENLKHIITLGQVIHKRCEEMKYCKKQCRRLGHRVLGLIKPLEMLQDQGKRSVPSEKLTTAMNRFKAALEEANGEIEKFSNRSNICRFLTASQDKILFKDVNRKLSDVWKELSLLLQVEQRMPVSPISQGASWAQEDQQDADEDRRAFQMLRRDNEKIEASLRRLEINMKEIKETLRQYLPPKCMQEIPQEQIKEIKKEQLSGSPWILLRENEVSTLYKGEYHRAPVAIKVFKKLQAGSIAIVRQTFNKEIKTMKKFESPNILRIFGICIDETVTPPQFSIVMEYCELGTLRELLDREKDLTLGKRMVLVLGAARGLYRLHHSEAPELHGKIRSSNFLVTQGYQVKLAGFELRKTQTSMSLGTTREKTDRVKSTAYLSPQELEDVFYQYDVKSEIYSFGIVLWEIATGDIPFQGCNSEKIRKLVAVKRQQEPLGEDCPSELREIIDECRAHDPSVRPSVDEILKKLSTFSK
T1 sequence (Q9Y572 whole entry): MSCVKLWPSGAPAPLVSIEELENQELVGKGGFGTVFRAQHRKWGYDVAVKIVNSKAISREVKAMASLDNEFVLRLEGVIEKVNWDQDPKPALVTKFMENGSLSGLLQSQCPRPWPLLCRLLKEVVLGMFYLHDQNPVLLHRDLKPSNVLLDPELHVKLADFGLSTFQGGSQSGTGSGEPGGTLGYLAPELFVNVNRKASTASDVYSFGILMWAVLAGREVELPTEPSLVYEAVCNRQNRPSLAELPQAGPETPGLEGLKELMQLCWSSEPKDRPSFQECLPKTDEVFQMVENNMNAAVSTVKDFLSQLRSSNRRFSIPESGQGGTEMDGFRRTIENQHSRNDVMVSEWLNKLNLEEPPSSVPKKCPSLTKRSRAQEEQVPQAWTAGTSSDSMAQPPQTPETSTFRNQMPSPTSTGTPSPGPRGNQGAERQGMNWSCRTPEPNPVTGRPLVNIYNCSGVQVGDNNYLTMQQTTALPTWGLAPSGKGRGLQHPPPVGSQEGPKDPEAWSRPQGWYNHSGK

SMILES	effect on MLKL-RIPK3 PPI [1]	effect on Tau dimerization [2]	inhibitory effect on CDK5-p25 PPI [3]	toxic effect on the cells [4]
CC(C)CC(=O)Nc1[nH]nc2c1CN(C(=O)C1CCN(C)CC1)C2(C)C [pHA-793887]	non-specific fluorescence complementation inhibitor	non-specific fluorescence complementation inhibitor		
C[C@@]12CCC[C@H]1[C@@H]1CC[C@H]3C[C@H](N)CC[C@]3(C)[C@H]1CC2 [3α-amino-5α-androstane]			did not reproduce this published data	toxic effect
